Molecules are shown by their SMILES. Positions of bridges follow the written chain, without caps; N, C: chain ends. Non-standard residues stand in square brackets, D forms with d. Residues, ends and D or L forms follow the SMILES beside them. Groups on a side chain read outwards from the residue. *: point of attachment. Trp(6-OMe) = COc1ccc2c(C[C@H](N)C(=O)O)c[nH]c2c1; C18 diacid = O=C(O)CCCCCCCCCCCCCCCCC(=O)*; Dip = N[C@H](C(=O)O)C(c1ccccc1)c1ccccc1; Palmitoyl = CCCCCCCCCCCCCCCC(=O)*; NMeF = CN[C@@H](Cc1ccccc1)C(=O)O; β3hF = N[C@H](CC(=O)O)Cc1ccccc1; dPen = CC(C)(S)[C@@H](N)C(=O)O; NMeK = CN[C@@H](CCCCN)C(=O)O; Isovaleryl = CC(C)CC(=O)*; NMeC = CN[C@@H](CS)C(=O)O; hCys = N[C@@H](CCS)C(=O)O; Dap = NC[C@H](N)C(=O)O; AEEA = NCCOCCOCC(=O)O; Ahx = NCCCCCC(=O)O

One assay addresses T1, ferroportin (Homo sapiens, UniProt Q9NP59).
T1 sequence (Q9NP59 1-571): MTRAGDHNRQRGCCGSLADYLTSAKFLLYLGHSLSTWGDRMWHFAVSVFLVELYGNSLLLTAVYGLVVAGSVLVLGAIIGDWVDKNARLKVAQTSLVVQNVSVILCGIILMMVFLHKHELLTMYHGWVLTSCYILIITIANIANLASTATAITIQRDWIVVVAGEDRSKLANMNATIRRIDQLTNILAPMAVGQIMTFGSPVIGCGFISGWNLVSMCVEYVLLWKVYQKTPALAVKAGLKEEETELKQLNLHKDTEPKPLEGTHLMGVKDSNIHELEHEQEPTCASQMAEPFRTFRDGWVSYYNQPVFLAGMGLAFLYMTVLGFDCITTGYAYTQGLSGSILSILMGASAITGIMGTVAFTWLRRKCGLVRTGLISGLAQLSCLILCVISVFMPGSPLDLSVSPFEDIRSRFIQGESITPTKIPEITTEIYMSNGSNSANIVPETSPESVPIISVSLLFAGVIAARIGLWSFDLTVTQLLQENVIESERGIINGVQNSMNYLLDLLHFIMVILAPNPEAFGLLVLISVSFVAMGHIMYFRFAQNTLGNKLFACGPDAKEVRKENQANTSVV
As to the kind of experiment: FPN activity assay: ferroportin-GFP internalization/degradation in HEK293 cells. The assay is classed as cell-based. The arrangement: expressed in transfected cells. The conditions noted are these: ferroportin-GFP HEK293 cells, at least 18 hours; read-out: FPN IC50. The method, then:
Following internalization, the ferroporin protein is degraded.
A retro inverse peptide is a peptide with a reversed sequence in all D amino acids. An example is that Hy-Glu-Thr-His-NH2 becomes Hy-DHis-DThr-DGlu-NH2. The EC50 of these reference compounds for ferroportin internalization/degradation was determined according to the FPN activity assay described above. These peptides served as control standards.
As to `CCCCCCCCCCCCCCCC(=O)NCCCCCC(=O)NCCCC[C@H](NC(=O)[C@@H](NC(=O)[C@@H]1CCSSC[C@H](N)C(=O)N[C@@H](C(C)C)C(=O)N[C@@H](CCC(=O)O)C(=O)N[C@@H]([C@@H](C)O)C(=O)N[C@@H](Cc2c[nH]cn2)C(=O)N[C@@H](C(c2ccccc2)c2ccccc2)C(=O)N2CCC[C@H]2C(=O)N1)[C@@H](C)CC)C(=O)N[C@H](CC(N)=O)Cc1ccccc1` [Compd 17] (H-CVETH[Dip]P[hCys]IK([Ahx-Palmitoyl])[β3hF]-NH2; disulfide 1-8), the DC50 lay in the range of 100 to 500 nM.

For `CCCCCCCCCCCCCCCC(=O)NCCCCCC(=O)NCCCC[C@H](NC(=O)C[C@H](Cc1ccccc1)NC(=O)[C@@H]1NC(=O)[C@H]([C@@H](C)CC)NC(=O)[C@H](C)NC(=O)[C@@H]2CCCN2C(=O)[C@H](C(c2ccccc2)c2ccccc2)NC(=O)[C@H](Cc2c[nH]cn2)NC(=O)[C@H]([C@@H](C)O)NC(=O)[C@@H](NC(=O)CC(C)C)CSSC1(C)C)C(=O)N[C@H](CCCCN)C(N)=O` [compound 104] (Isovaleryl-CTH[Dip]PAI[dPen][β3hF]K([Ahx-Palmitoyl])[dK]-NH2; disulfide 1-8), the DC50 lay within 10 to 100 nM. On to `CC(C)CC(=O)N[C@@H](CCC(=O)O)C(=O)N[C@H](C(=O)N[C@@H](Cc1c[nH]cn1)C(=O)N[C@H](C(=O)N1CCC[C@H]1C(=O)N[C@H]1CSSC[C@@H](C(=O)N[C@H](CCCCN)C(=O)N[C@H](CC(=O)N[C@@H](CCCCNC(=O)COCCOCCNC(=O)COCCOCCNC(=O)CCCCCNC(=O)CCCCCCCCCCCCCCCCC(=O)O)C(=O)N[C@H](CCCCN)C(N)=O)Cc2ccccc2)NC1=O)C(c1ccccc1)c1ccccc1)[C@@H](C)O` [Compd 26] (Isovaleryl-ETH[Dip]PCC[dK][β3hF]K([AEEA-AEEA-Ahx-C18 diacid])[dK]-NH2; disulfide 6-7), for which the DC50 lay within 10 to 100 nM. Same read-out and setting: in the case of `CCCCCCCCCCCCCCCC(=O)NCCCCCC(=O)NCCCC[C@H](NC(=O)C[C@H](Cc1ccccc1)NC(=O)[C@@H]1CCSSCC[C@H](NC(=O)CC(C)C)C(=O)N[C@@H]([C@@H](C)O)C(=O)N[C@@H](Cc2cnc[nH]2)C(=O)N[C@@H](C(c2ccccc2)c2ccccc2)C(=O)N2CCC[C@H]2C(=O)N[C@@H](C)C(=O)N[C@@H]([C@@H](C)CC)C(=O)N1)C(=O)N[C@H](CCCCN)C(N)=O` [compound 111] (Isovaleryl-[hCys]TH[Dip]PAI[hCys][β3hF]K([Ahx-Palmitoyl])[dK]-NH2; disulfide 1-8) it was 10 to 100 nM; in that of `CCCCCCCCCCCCCCCC(=O)NCCCCCC(=O)NCCCC[C@H](NC(=O)C[C@H](Cc1ccccc1)NC(=O)[C@@H](CCCCN)NC(=O)[C@@H](NC(=O)[C@@H]1CSSC[C@H](NC(=O)[C@H](Cc2c[nH]cn2)NC(=O)[C@@H](NC(=O)[C@H](CCC(=O)O)NC(=O)CC(C)C)[C@@H](C)O)C(=O)N2CCC[C@H]2C(=O)N1)[C@@H](C)CC)C(=O)N[C@H](CCCCN)C(N)=O` [Compd 3] (Isovaleryl-ETHCPCI[dK][β3hF]K([Ahx-Palmitoyl])[dK]-NH2; disulfide 4-6), 10 to 100 nM; in that of `CCCCCCCCCCCCCCCC(=O)NCCCCCC(=O)NCCCC[C@H](NC(=O)[C@@H](NC(=O)[C@@H]1CSSC[C@H](NC(C)=O)C(=O)N[C@@H](CCC(=O)O)C(=O)N[C@@H]([C@@H](C)O)C(=O)N[C@@H](Cc2c[nH]cn2)C(=O)N[C@@H](C(c2ccccc2)c2ccccc2)C(=O)N2CCC[C@H]2C(=O)N1)[C@@H](C)CC)C(=O)N[C@H](CC(N)=O)Cc1ccccc1` [Compd 9] (Ac-CETH[Dip]PCIK([Ahx-Palmitoyl])[β3hF]-NH2; disulfide 1-7), 100 to 500 nM. Same read-out and setting: next, `CC[C@H](C)[C@H](NC(=O)[C@@H]1CSSC[C@H](NC(=O)[C@H](Cc2c[nH]cn2)NC(=O)[C@@H](NC(=O)[C@H](CCC(=O)O)NC(=O)CC(C)C)[C@@H](C)O)C(=O)N2CCC[C@H]2C(=O)N1)C(=O)N[C@@H](CCCCNC(=O)COCCOCCNC(=O)COCCOCCNC(=O)CCCCCNC(=O)CCCCCCCCCCCCCCCCC(=O)O)C(=O)N[C@H](CC(=O)N[C@H](CCCCN)C(N)=O)Cc1ccccc1` [Compd 20] (Isovaleryl-ETHCPCIK([AEEA-AEEA-Ahx-C18 diacid])[β3hF][dK]-NH2; disulfide 4-6): 100 to 500 nM; `CCCCCCCCCCCCCCCC(=O)NCCCCCC(=O)NCCCC[C@H](NC(=O)C[C@H](Cc1ccccc1)NC(=O)[C@@H]1CSSCC[C@H](NC(=O)CC(C)C)C(=O)N[C@@H]([C@@H](C)O)C(=O)N[C@@H](Cc2cnc[nH]2)C(=O)N[C@@H](C(c2ccccc2)c2ccccc2)C(=O)N2CCC[C@H]2C(=O)N[C@@H](C)C(=O)N[C@@H]([C@@H](C)CC)C(=O)N1)C(=O)N[C@H](CCCCN)C(N)=O` [compound 110] (Isovaleryl-[hCys]TH[Dip]PAIC[β3hF]K([Ahx-Palmitoyl])[dK]-NH2; disulfide 1-8): 1 to 10 nM; `CC[C@H](C)[C@H](NC(=O)[C@@H]1CSSC[C@H](NC(=O)[C@H](Cc2c[nH]cn2)NC(=O)[C@@H](NC(=O)[C@H](CCC(=O)O)NC(=O)CC(C)C)[C@@H](C)O)C(=O)N2CCC[C@H]2C(=O)N1)C(=O)N[C@H](CCCCN)C(=O)N[C@H](CC(=O)N[C@@H](CCCCNC(=O)COCCOCCNC(=O)COCCOCCNC(=O)CCCCCNC(=O)CCCCCCCCCCCCCCCCC(=O)O)C(=O)N[C@H](CCCCN)C(N)=O)Cc1ccccc1` [Compd 24] (Isovaleryl-ETHCPCI[dK][β3hF]K([AEEA-AEEA-Ahx-C18 diacid])[dK]-NH2; disulfide 4-6): 100 to 500 nM.

As to `CCCCCCCCCCCCCCCC(=O)NCCCCCC(=O)NCCCC[C@H](NC(=O)C[C@H](Cc1ccccc1)NC(=O)[C@@H]1CSSC[C@H](NC(=O)[C@@H]2CCCN2C(=O)[C@@H](NC(=O)[C@H](Cc2c[nH]cn2)NC(=O)[C@@H](NC(=O)[C@H](CCC(=O)O)NC(=O)CC(C)C)[C@@H](C)O)C(c2ccccc2)c2ccccc2)C(=O)N[C@@H]([C@@H](C)CC)C(=O)N1)C(=O)N[C@H](CCCCN)C(N)=O` [Compd 8] (Isovaleryl-ETH[Dip]PCIC[β3hF]K([Ahx-Palmitoyl])[dK]-NH2; disulfide 6-8), the DC50 fell in the range of 100 to 500 nM.

Staying with this assay, now noted: ferroportin-GFP internalization/degradation, HEK293 cells; Table 6E; read-out: FPN IC50.
Take `CC(C)CC(=O)N[C@@H](CCC(=O)O)C(=O)N[C@H](C(=O)N[C@@H](Cc1c[nH]cn1)C(=O)N[C@H](C(=O)N1CCC[C@H]1C(=O)N[C@H]1CSSC[C@@H](C(=O)N(C)[C@@H](CCCCNC(=O)COCCOCCNC(=O)COCCOCCNC(=O)[C@H](CN)NC(=O)CCCCCCCCCCCCCCCCC(=O)O)C(=O)N(C)[C@@H](Cc2ccccc2)C(=O)N[C@H](CCCCN)C(N)=O)N(C)C1=O)C(c1ccccc1)c1ccccc1)[C@@H](C)O` [compound 281] (Isovaleryl-ETH[Dip]PC[NMeC][NMeK]([AEEA-AEEA-Dap-C18 diacid])[NMeF][dK]-NH2; disulfide 6-7): the DC50 was in the range of 100 to 500 nM. On the same count and under the same terms, in the case of `COc1ccc2c(C[C@H](NC(=O)[C@@H](NC(=O)[C@H](CCC(=O)O)NC(=O)CC(C)C)[C@@H](C)O)C(=O)N[C@H](C(=O)N3CCC[C@H]3C(=O)N[C@H]3CSSC[C@@H](C(=O)N(C)[C@@H](CCCCNC(=O)COCCOCCNC(=O)COCCOCCNC(=O)[C@H](CN)NC(=O)CCCCCCCCCCCCCCCCC(=O)O)C(=O)N[C@H](CC(=O)N[C@H](CCCCN)C(N)=O)Cc4ccccc4)NC3=O)C(c3ccccc3)c3ccccc3)c[nH]c2c1` [compound 287] (Isovaleryl-ET[Trp(6-OMe)][Dip]PCC[NMeK]([AEEA-AEEA-Dap-C18 diacid])[β3hF][dK]-NH2; disulfide 6-7) it was over 500 nM.

The values above are taken from US20250277012A1 (Protagonist Therapeutics, Inc., priority 2021, published 2025).
